Data from patent US8372863B2, “Tetrahydro-1H-pyrrolo fused pyridones” (Merck Sharp & Dohme Corp., priority 2008, dated 2013).
pIC50: −log10 of the molar value. Where two headings read alike, the source gives them in different places.

Molecular target: PHD2 (Homo sapiens, UniProt Q9GZT9)
Assay: PHD2 / HIF-1α peptide hydroxylation assay with time resolved fluorescence readout (PHD2 binding activity)
Format: biochemical
Conditions: FLAG-tagged full length PHD2, 0.2 μM 2-oxoglutarate, 0.5 μM HIF-1α peptide
Method: After a 30 min preincubation at room temperature, the enzymatic reactions were initiated by the addition of 4 μL of substrates (final concentrations of 0.2 μM 2-oxoglutarate and 0.5 μM HIF-1α peptide biotinyl-DLDLEMLAPYIPMDDDFQL). After 2 hr at room temperature, the reactions were terminated and signals were developed by the addition of a 25 μL quench/detection mix to a final concentration of 1 mM ortho-phenanthroline, 0.1 mM EDTA, 0.5 nM anti-(His)6 LANCE reagent (Perkin-Elmer Life Sciences), 100 nM AF647-labeled streptavidin (Invitrogen), and 2 μg/ml (His)6-VHL complex (S. Tan(2001) Protein Expr. Purif 21, 224-234). The ratio of time resolved fluorescence signals at 665 and 620 nm was determined, and percent inhibition was calculated relative to an uninhibited control sample run in parallel.

[1] = read-out: PHD2 Activity (PHD2 binding activity expressed as IC50)

Chain of PHD2 (Q9GZT9 whole entry): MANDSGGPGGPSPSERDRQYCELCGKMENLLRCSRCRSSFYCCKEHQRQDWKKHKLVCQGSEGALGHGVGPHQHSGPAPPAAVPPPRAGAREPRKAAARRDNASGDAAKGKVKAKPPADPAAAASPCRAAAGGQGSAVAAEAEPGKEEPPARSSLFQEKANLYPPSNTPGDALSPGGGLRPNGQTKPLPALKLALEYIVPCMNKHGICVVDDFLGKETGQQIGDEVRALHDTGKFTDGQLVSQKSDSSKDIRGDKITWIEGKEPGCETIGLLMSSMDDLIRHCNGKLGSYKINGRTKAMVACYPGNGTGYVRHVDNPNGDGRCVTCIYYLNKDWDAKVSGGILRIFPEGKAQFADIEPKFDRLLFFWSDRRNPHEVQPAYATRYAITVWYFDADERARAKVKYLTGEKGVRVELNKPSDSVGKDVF

SMILES | pIC50 [1] | pIC50 (PHD2 Activity (PHD2 binding activity expressed as IC50))
CN(C)S(=O)(=O)N1Cc2c(O)c(C(=O)NCC(=O)O)c(=O)n(Cc3ccc(C(F)(F)F)cc3)c2C1 [Example 12, N-({6-[(dimethylamino)sulfonyl]-4-hydroxy-2-oxo-1-[4-(trifluoromethyl)benzyl]-2,5,6,7-tetrahydro-1H-pyrrolo[3,4-b]pyridin-3-yl}carbonyl)glycine] | > 8.00 | 
O=C(O)CNC(=O)c1c(O)c2c(n(Cc3ccc(C(F)(F)F)cc3)c1=O)CN(C(=O)C1CC1)C2 [Example 13, N-({6-(cyclopropylcarbonyl)-4-hydroxy-2-oxo-1-[4-(trifluoromethyl)benzyl]-2,5,6,7-tetrahydro-1H-pyrrolo[3,4-b]pyridin-3-yl}carbonyl)glycine] |  | > 8.00
O=C(O)CNC(=O)c1c(O)c2c(n(Cc3ccc(C(F)(F)F)cc3)c1=O)CN(C(=O)N1CCCC1)C2 [Example 17, N-({4-hydroxy-2-oxo-6-(pyrrolidin-1-ylcarbonyl)-1-[4-(trifluoromethyl)benzyl]-2,5,6,7-tetrahydro-1H-pyrrolo[3,4-b]pyridin-3-yl}carbonyl)glycine] | > 8.00 | 
O=C(O)CNC(=O)c1c(O)c2c(n(Cc3ccc(C(F)(F)F)cc3)c1=O)CN(S(=O)(=O)c1ccccc1)C2 [Example 19, N-({4-hydroxy-2-oxo-6-(phenyl-sulfonyl)-1-[4-(trifluoromethyl)benzyl]-2,5,6,7-tetrahydro-1H-pyrrolo[3,4-b]pyridin-3-yl}carbonyl)glycine] | > 8.00 | 
O=C(O)CNC(=O)c1c(O)c2c(n(Cc3ccc(C(F)(F)F)cc3)c1=O)CN(C(=O)C1CCCC1)C2 [Example 20, N-({6-(cyclopentylcarbonyl)-4-hydroxy-2-oxo-1-[4-(trifluoromethyl)benzyl]-2,5,6,7-tetrahydro-1H-pyrrolo[3,4-b]pyridin-3-yl}carbonyl)glycine] | > 8.00 | 
CCOC(=O)N1Cc2c(O)c(C(=O)NCC(=O)O)c(=O)n(Cc3ccc(-c4ccccc4)cc3)c2C1 [Example 22, N-{[1-(biphenyl-4-ylmethyl)-6-(ethoxycarbonyl)-4-hydroxy-2-oxo-2,5,6,7-tetrahydro-1H-pyrrolo[3,4-b]pyridin-3-yl]carbonyl}glycine] | > 8.00 | 
CN1CCC[C@H]1C(=O)N1Cc2c(O)c(C(=O)NCC(=O)O)c(=O)n(Cc3ccc(C(F)(F)F)cc3)c2C1 [Example 27, N-({4-hydroxy-6-(1-methyl-L-prolyl)-2-oxo-1-[4-(trifluoromethyl)benzyl]-2,5,6,7-tetrahydro-1H-pyrrolo[3,4-b]pyridin-3-yl}carbonyl)glycine] | > 8.00 | 
O=C(O)CNC(=O)c1c(O)c2c(n(Cc3ccc(C(F)(F)F)cc3)c1=O)CN(C(=O)[C@@H]1CCC(=O)N1)C2 [Example 28, N-({4-hydroxy-2-oxo-6-(5-oxo-L-prolyl)-1-[4-(trifluoromethyl)benzyl]-2,5,6,7-tetrahydro-1H-pyrrolo[3,4-b]pyridin-3-yl}carbonyl)glycine] | > 8.00 | 
Cc1cc(C(=O)N2Cc3c(O)c(C(=O)NCC(=O)O)c(=O)n(Cc4ccc(C(F)(F)F)cc4)c3C2)nn1C [Example 31, N-({6-[(1,5-dimethyl-1H-pyrazol-2-ium-3-yl)carbonyl]-4-hydroxy-2-oxo-1-[4-(trifluoromethyl)benzyl]-2,5,6,7-tetrahydro-1H-pyrrolo[3,4-b]pyridin-3-yl}carbonyl)glycine chloride] | > 8.00 | 
O=C(O)CNC(=O)c1c(O)c2c(n(Cc3ccc(-c4ccccc4)cc3)c1=O)CN(C(=O)c1cscn1)C2 [Example 38, N-{[1-(biphenyl-4-ylmethyl)-4-hydroxy-2-oxo-6-(1,3-thiazol-4-ylcarbonyl)-2,5,6,7-tetrahydro-1H-pyrrolo[3,4-b]pyridin-3-yl]carbonyl}glycine] | > 8.00 | 

More lines, main results first:

pIC50 [1] | SMILES | pIC50 (PHD2 Activity (PHD2 binding activity expressed as IC50))
> 8.00 | COCC(=O)N1Cc2c(O)c(C(=O)NCC(=O)O)c(=O)n(Cc3ccc(C(F)(F)F)cc3)c2C1 [Example 14, N-({4-hydroxy-6-(methoxyacetyl)-2-oxo-1-[4-(trifluoromethyl)benzyl]-2,5,6,7-tetrahydro-1H-pyrrolo[3,4-b]pyridin-3-yl}carbonyl)glycine] | 
> 8.00 | CC(C)(C)C(=O)N1Cc2c(O)c(C(=O)NCC(=O)O)c(=O)n(Cc3ccc(C(F)(F)F)cc3)c2C1 [Example 15, N-({6-(2,2-dimethylpropanoyl)-4-hydroxy-2-oxo-1-[4-(trifluoromethyl)benzyl]-2,5,6,7-tetrahydro-1H-pyrrolo[3,4-b]pyridin-3-yl}carbonyl)glycine] | 
> 8.00 | CCOC(=O)N1Cc2c(O)c(C(=O)NCC(=O)O)c(=O)n(Cc3ccc(C(F)(F)F)cc3)c2C1 [Example 16, N-({6-(ethoxycarbonyl)-4-hydroxy-2-oxo-1-[4-(trifluoromethyl)benzyl]-2,5,6,7-tetrahydro-1H-pyrrolo[3,4-b]pyridin-3-yl}carbonyl)glycine] | 
> 8.00 | O=C(O)CNC(=O)c1c(O)c2c(n(Cc3ccc(C(F)(F)F)cc3)c1=O)CN(C(=O)c1ccccc1Cl)C2 [Example 18, N-({6-(2-chlorobenzoyl)-4-hydroxy-2-oxo-1-[4-(trifluoromethyl)benzyl]-2,5,6,7-tetrahydro-1H-pyrrolo[3,4-b]pyridin-3-yl}carbonyl)glycine] | 
> 8.00 | O=C(O)CNC(=O)c1c(O)c2c(n(Cc3ccc(C(F)(F)F)cc3)c1=O)CN(C(=O)c1ccc(Cl)cc1)C2 [Example 21, N-({6-(4-chlorobenzoyl)-4-hydroxy-2-oxo-1-[4-(trifluoromethyl)benzyl]-2,5,6,7-tetrahydro-1H-pyrrolo[3,4-b]pyridin-3-yl}carbonyl)glycine] | 
> 8.00 | Cc1cc(C(=O)N2Cc3c(O)c(C(=O)NCC(=O)O)c(=O)n(Cc4ccc(C(F)(F)F)cc4)c3C2)n(C)n1 [Example 23, N-({6-[(1,3-dimethyl-1H-pyrazol-5-yl)carbonyl]-4-hydroxy-2-oxo-1-[4-(trifluoromethyl)benzyl]-2,5,6,7-tetrahydro-1H-pyrrolo[3,4-b]pyridin-3-yl}carbonyl)glycine] | 
> 8.00 | O=C(O)CNC(=O)c1c(O)c2c(n(Cc3ccc(C(F)(F)F)cc3)c1=O)CN(C(=O)c1cc3ncccn3n1)C2 [Example 24, N-({4-hydroxy-2-oxo-6-(pyrazolo[1,5-a]pyrimidin-2-ylcarbonyl)-1-[4-(trifluoromethyl)benzyl]-2,5,6,7-tetrahydro-1H-pyrrolo[3,4-b]pyridin-3-yl}carbonyl)glycine] | 
> 8.00 | O=C(O)CNC(=O)c1c(O)c2c(n(Cc3ccc(C(F)(F)F)cc3)c1=O)CN(C(=O)c1cccnc1)C2 [Example 25, N-({4-hydroxy-2-oxo-6-(pyridin-3-ylcarbonyl)-1-[4-(trifluoromethyl)benzyl]-2,5,6,7-tetrahydro-1H-pyrrolo[3,4-b]pyridin-3-yl}carbonyl)glycine] | 
> 8.00 | Cc1ccc(C(=O)N2Cc3c(O)c(C(=O)NCC(=O)O)c(=O)n(Cc4ccc(C(F)(F)F)cc4)c3C2)cn1 [Example 26, N-({4-hydroxy-6-[(6-methylpyridin-3-yl)carbonyl]-2-oxo-1-[4-(trifluoromethyl)benzyl]-2,5,6,7-tetrahydro-1H-pyrrolo[3,4-b]pyridin-3-yl}carbonyl)glycine] | 
> 8.00 | O=C(O)CNC(=O)c1c(O)c2c(n(Cc3ccc(C(F)(F)F)cc3)c1=O)CN(C(=O)c1cscn1)C2 [Example 29, N-({4-hydroxy-2-oxo-6-(1,3-thiazol-4-ylcarbonyl)-1-[4-(trifluoromethyl)benzyl]-2,5,6,7-tetrahydro-1H-pyrrolo[3,4-b]pyridin-3-yl}carbonyl)glycine] | 
> 8.00 | O=C(O)CNC(=O)c1c(O)c2c(n(Cc3ccc(C(F)(F)F)cc3)c1=O)CN(C(=O)c1cncs1)C2 [Example 30, N-({4-hydroxy-2-oxo-6-(1,3-thiazol-5-ylcarbonyl)-1-[4-(trifluoromethyl)benzyl]-2,5,6,7-tetrahydro-1H-pyrrolo[3,4-b]pyridin-3-yl}carbonyl)glycine] | 
7.00 to 8.00 | O=C(O)CNC(=O)c1c(O)c2c(n(Cc3ccc(C(F)(F)F)cc3)c1=O)CN(C(=O)c1ccno1)C2 [Example 33, N-({4-hydroxy-6-(isoxazol-5-ylcarbonyl)-2-oxo-1-[4-(trifluoromethyl)benzyl]-2,5,6,7-tetrahydro-1H-pyrrolo[3,4-b]pyridin-3-yl}carbonyl)glycine] | 
> 8.00 | O=C(O)CNC(=O)c1c(O)c2c(n(Cc3ccc(C(F)(F)F)cc3)c1=O)CN(C(=O)c1nccs1)C2 [Example 34, N-({4-hydroxy-2-oxo-6-(1,3-thiazol-2-ylcarbonyl)-1-[4-(trifluoromethyl)benzyl]-2,5,6,7-tetrahydro-1H-pyrrolo[3,4-b]pyridin-3-yl}carbonyl)glycine] | 
> 8.00 | O=C(O)CNC(=O)c1c(O)c2c(n(Cc3ccc(C(F)(F)F)cc3)c1=O)CN(C(=O)c1csnn1)C2 [Example 35, N-({4-hydroxy-2-oxo-6-(1,2,3-thiadiazol-4-ylcarbonyl)-1-[4-(trifluoromethyl)benzyl}-2,5,6,7-tetrahydro-1H-pyrrolo[3,4-b]pyridin-3-yl}carbonyl)glycine] | 
> 8.00 | O=C(O)CNC(=O)c1c(O)c2c(n(Cc3ccc(C(F)(F)F)cc3)c1=O)CN(C(=O)c1cocn1)C2 [Example 37, N-({4-hydroxy-6-(1,3-oxazol-4-ylcarbonyl)-2-oxo-1-[4-(trifluoromethyl)benzyl]-2,5,6,7-tetrahydro-1H-pyrrolo[3,4-b]pyridin-3-yl}carbonyl)glycine] | 
